From ChEMBL document CHEMBL1201862, “PubChem BioAssay data set” (2004)
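Interpolation was linear, between the two tested concentrations surrounding the appropriate level; five concentrations were tested over 48 hours in 96-well plates. GI50 = concentration required for 50% inhibition of growth.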 Activity calls are given as the source filed them. Cut-off read from the data, not from the text of the source: active = GI50 up to about 1.1 µM and inactive = higher.

How the values were obtained:
Experiment in all cases: inhibition of tumour cell growth, NCI panel, 48 h
786-0 = test system: 786-0
A498 = test system: A498
A549 = test system: A549
ACHN = test system: ACHN
CAKI-1 = test system: CAKI-1
CCRF-CEM = test system: CCRF-CEM
COLO 205 = test system: COLO 205
DU-145 = test system: DU-145
EKVX = test system: EKVX
HCC 2998 = test system: HCC 2998
HCT-116 = test system: HCT-116
HCT-15 = test system: HCT-15
HOP-62 = test system: HOP-62
HT-29 = test system: HT-29
Hs-578T = test system: Hs-578T
IGROV-1 = test system: IGROV-1
K562 = test system: K562
KM12 = test system: KM12
LOX IMVI = test system: LOX IMVI
M14 = test system: M14
MCF7 = test system: MCF7
MDA-MB-231 = test system: MDA-MB-231
MDA-MB-435 = test system: MDA-MB-435
MDA-N = test system: MDA-N
MOLT-4 = test system: MOLT-4
Malme-3M = test system: Malme-3M
NCI-H226 = test system: NCI-H226
NCI-H23 = test system: NCI-H23
NCI-H460 = test system: NCI-H460
NCI-H522 = test system: NCI-H522
NCI/ADR-RES = test system: NCI/ADR-RES
OVCAR-3 = test system: OVCAR-3
OVCAR-4 = test system: OVCAR-4
OVCAR-5 = test system: OVCAR-5
OVCAR-8 = test system: OVCAR-8
PC-3 = test system: PC-3
RXF 393 = test system: RXF 393
SF-268 = test system: SF-268
SF-295 = test system: SF-295
SF-539 = test system: SF-539
SK-MEL-28 = test system: SK-MEL-28
SK-MEL-2 = test system: SK-MEL-2
SK-MEL-5 = test system: SK-MEL-5
SK-OV-3 = test system: SK-OV-3
SN12C = test system: SN12C
SNB-19 = test system: SNB-19
SR = test system: SR
SW-620 = test system: SW-620
T47D = test system: T47D
TK-10 = test system: TK-10
U-251 = test system: U-251
UACC-257 = test system: UACC-257
UACC-62 = test system: UACC-62
BT-549 = test system: BT-549
HOP-92 = test system: HOP-92
SNB-75 = test system: SNB-75

CC1(C)CCOC(=O)C(Cl)CC1Cl (stereo not drawn)
GI50 (786-0): > 100 µM (inactive)
GI50 (A498): > 100 µM (inactive)
GI50 (A549): > 100 µM (inactive)
GI50 (ACHN): > 100 µM (inactive)
GI50 (CAKI-1): > 100 µM (inactive)
GI50 (CCRF-CEM): > 100 µM (inactive)
GI50 (COLO 205): > 100 µM (inactive)
GI50 (DU-145): > 100 µM (inactive)
GI50 (EKVX): > 100 µM (inactive)
GI50 (HCC 2998): > 100 µM (inactive)
GI50 (HCT-116): > 100 µM (inactive)
GI50 (HCT-15): > 100 µM
GI50 (HOP-62): > 100 µM (inactive)
GI50 (HT-29): > 100 µM (inactive)
GI50 (Hs-578T): > 100 µM (inactive)
GI50 (IGROV-1): > 100 µM (inactive)
GI50 (K562): > 100 µM (inactive)
GI50 (KM12): > 100 µM (inactive)
GI50 (LOX IMVI): > 100 µM (inactive)
GI50 (M14): > 100 µM (inactive)
GI50 (MCF7): > 100 µM (inactive)
GI50 (MDA-MB-231): > 100 µM (inactive)
GI50 (MDA-MB-435): > 100 µM (inactive)
GI50 (MDA-N): > 100 µM (inactive)
GI50 (MOLT-4): > 100 µM (inactive)
GI50 (Malme-3M): > 100 µM (inactive)
GI50 (NCI-H226): > 100 µM (inactive)
GI50 (NCI-H23): > 100 µM (inactive)
GI50 (NCI-H460): > 100 µM (inactive)
GI50 (NCI-H522): > 100 µM (inactive)
GI50 (NCI/ADR-RES): > 100 µM (inactive)
GI50 (OVCAR-3): > 100 µM (inactive)
GI50 (OVCAR-4): > 100 µM (inactive)
GI50 (OVCAR-5): > 100 µM (inactive)
GI50 (OVCAR-8): > 100 µM (inactive)
GI50 (PC-3): > 100 µM (inactive)
GI50 (RXF 393): > 100 µM (inactive)
GI50 (SF-268): > 100 µM (inactive)
GI50 (SF-295): > 100 µM (inactive)
GI50 (SF-539): > 100 µM (inactive)
GI50 (SK-MEL-28): > 100 µM (inactive)
GI50 (SK-MEL-2): > 100 µM (inactive)
GI50 (SK-MEL-5): > 100 µM (inactive)
GI50 (SK-OV-3): > 100 µM (inactive)
GI50 (SN12C): > 100 µM (inactive)
GI50 (SNB-19): > 100 µM (inactive)
GI50 (SR): > 100 µM (inactive)
GI50 (SW-620): > 100 µM (inactive)
GI50 (T47D): > 100 µM (inactive)
GI50 (TK-10): > 100 µM (inactive)
GI50 (U-251): > 100 µM (inactive)
GI50 (UACC-257): > 100 µM (inactive)
GI50 (UACC-62): > 100 µM (inactive)

COc1cc(OC)c2[nH]c3c(O)c(-c4c(C)cc5c([nH]c6c(OC)cc(OC)cc65)c4O)c(C)cc3c2c1
GI50 (786-0): 8.3 µM (inactive)
GI50 (A549): 6.49 µM (inactive)
GI50 (ACHN): 8.77 µM (inactive)
GI50 (BT-549): 9.02 µM (inactive)
GI50 (DU-145): 7.87 µM (inactive)
GI50 (EKVX): 6.22 µM (inactive)
GI50 (HCC 2998): 8.51 µM (inactive)
GI50 (HCT-116): 8.81 µM (inactive)
GI50 (HOP-62): 10.3 µM (inactive)
GI50 (HOP-92): 8.73 µM (inactive)
GI50 (Hs-578T): 9.44 µM (inactive)
GI50 (IGROV-1): 7.18 µM (inactive)
GI50 (KM12): 9.4 µM (inactive)
GI50 (LOX IMVI): 7.89 µM (inactive)
GI50 (M14): 8.38 µM (inactive)
GI50 (MDA-MB-231): 9.23 µM (inactive)
GI50 (NCI-H226): 9.08 µM (inactive)
GI50 (NCI-H460): 8.55 µM (inactive)
GI50 (NCI-H522): 9.06 µM (inactive)
GI50 (NCI/ADR-RES): 8.77 µM (inactive)
GI50 (OVCAR-3): 8.87 µM (inactive)
GI50 (OVCAR-4): 9.42 µM (inactive)
GI50 (OVCAR-8): 8.43 µM (inactive)
GI50 (PC-3): 7.91 µM (inactive)
GI50 (RXF 393): 9.12 µM (inactive)
GI50 (SF-268): 8.39 µM (inactive)
GI50 (SF-539): 9.42 µM (inactive)
GI50 (SK-MEL-28): 9.38 µM (inactive)
GI50 (SK-MEL-2): 9.25 µM (inactive)
GI50 (SNB-75): 7.89 µM (inactive)
GI50 (SW-620): 9.35 µM (inactive)
GI50 (T47D): 8.85 µM (inactive)
GI50 (TK-10): 10.1 µM (inactive)
GI50 (U-251): 11.7 µM (inactive)
GI50 (UACC-257): 9.33 µM (inactive)
